Laboratory results as given in patent US9739765B2, “Metal-based covalent viability reagent for single cell analysis” (The Board of Trustees of the Leland Stanford Junior …, priority 2013, dated 2017).

How the values were obtained:
KG-1 cells = experiment: Cisplatin viability labeling of partially heat-killed KG-1 cells, mass cytometry; assay type: cell-based, human; settings: KG-1 cells spiked with approximately 30% heat-killed cells; 1 min cisplatin at 10, 50, or 250 μM (all doses)
Description: Generation of non-viable control cells. To generate samples with known amounts of non-viable cells, an aliquot of cultured cells was heat-killed at 55° C. for 1 hour, cooled to 37° C. and then spiked into each culture of viable cells at known percentages based on Trypan blue exclusion staining. Samples were then prepared for fluorescence and mass cytometry and the live/dead ratio of cells determined by each technology.
Cisplatin exposure. Cisplatin (WR International, Radnor, Pa., Cat #89150-634) was stored at −80° C. as a stock solution of 100 mM in DMSO (Hybrimax, Sigma Aldrich, St Louis, Mo.). Working solutions (10 mM) were prepared fresh on the day of each experiment by diluting the stock solution into PBS at 4° C. […]
(§1) Mass cytometry measurement. Cells were analyzed on a CyTOF® mass cytometer (DVS Sciences, Richmond Hill, Ontario, Canada). […] Cells were measured at approximately 500 cells per second, noise reduction was activated and cell extraction parameters were set to: Cell length, range was set from 10 to 65 pushes, and the lower convolution threshold was set to 10.
Comparison between fluorescence and mass cytometry protocols. […] In the first experiment a suspension of human myeloid KG-1 cells spiked with approximately 30% of heat-killed KG-1 cells (determined by Trypan blue extrusion), was tested with Aqua and cisplatin. […]

[1] = tested on: Jurkat, KG-1, HeLa, OVCAR3 cell lines; experiment: Cisplatin viability labeling of suspension and adherent cell lines spiked with heat-killed cells, mass cytometry; assay type: cell-based
Description: Cell culture. The cancer cell lines Jurkat (T acute lymphoblastic leukemia suspension cells) and OVCAR-3 (ovarian carcinoma adherent cells) were cultured in RPMI-1640 (GIBCO, Invitrogen, Carlsbad, Calif.) with 10% heat-inactivated fetal bovine serum (FBS), 2 mM L-glutamine and 100 U/ml penicillin. The suspension cell lines KG-1 (acute myeloid leukemia) and HL-60 (acute myeloid leukemia cells) were cultured in IMDM (GIBCO, Invitrogen, Carlsbad, Calif.) with 20% heat-inactivated FBS and 100 U/ml penicillin. The adherent cell line HeLa (cervical carcinoma) was cultured in DMEM (GIBCO, Invitrogen, Carlsbad, Calif.) with 10% heat-inactivated FBS and 100 U/ml penicillin. All cell lines were maintained at 37° C. in a humidified 5.0% CO2 environment. Peripheral blood from healthy donors was purchased from the Stanford Blood Bank according to an IRB-approved protocol. […] Samples were then prepared for fluorescence and mass cytometry and the live/dead ratio of cells determined by each technology. […] Cells were analyzed on a CyTOF® mass cytometer (DVS Sciences, Richmond Hill, Ontario, Canada). […] Cells were measured at approximately 500 cells per second, noise reduction was activated and cell extraction parameters were set to: Cell length, range was set from 10 to 65 pushes, and the lower convolution threshold was set to 10. […]

[2] = tested on: phosphorylation of SLP-76 (Y128) and SLP-65 in PBMCs; experiment: Pervanadate stimulation of cisplatin-labeled PBMCs, pSLP-76/65 signaling; assay type: cell-based; settings: myeloid cells, T cells and B cells of PBMCs; 125 μM, 15 min
Description: Pervanadate stimulation of PBMCs. Frozen PBMCs were thawed at 37° C. and resuspended in RPMI-1640/10% FBS/2 mM EDTA. A fraction of the PBMCs (30%) was heat-killed separately and spiked back in, as described above. Cells were treated with cisplatin according to the standard protocol described above, at 10^6 cells/ml. Samples were then treated with activated sodium orthovanadate at a final concentration of 125 μM for 15 min at 37° C. Cells were fixed with 1.6% (final concentration) PFA for 10 min at room temperature.
Antibody staining. […]
as §1
Cisplatin as a viability indicator for primary samples. […] Therefore to evaluate signaling in PBMCs, phosphorylation of SLP-76 (Y128) (T cells and myeloid cells) and SLP-65 (Y76) (B cells) was determined after a […] exposure to vanadate, a global tyrosine phosphatase inhibitor, shown to increase intracellular kinase activity and phosphotyrosine levels.

| Compound | frequency of cisplatin positive (dead) cells (KG-1 cells) | signal-to-noise ratios separating live and dead cells ([1]; 1-minute pulse protocol, routinely observed (FIG. 2-5)) | signal-to-noise ratios, cisplatin-high (dead) vs cisplatin-low (live) populations ([1]; each cisplatin concentration (10, 50, 250 μM), HeLa, OVCAR3, Jurkat, KG-1) | SLP-76/65 phosphorylation in response to pervanadate, cisplatin-high populations [2] | SLP-76/65 phosphorylation in response to pervanadate, cisplatin-low populations [2] |
| --- | --- | --- | --- | --- | --- |
| N.N.[Cl][Pt][Cl] [cisplatin, Cisplatin [Pt(NH3)2Cl]] | 26-28% | greater than 10 fold | above 10 | – | – |
| activated sodium orthovanadate [pervanadate] | – | – | – | no response | strong increase |
